Test results reported in publication PMC8774657, “Peptide-Mucin Binding and Biosimilar Mucus-Permeating Properties” (Gels, 2021).
Where a SMILES comes first, the peptide text is derived from it. Where no end group is shown, it is not given here.

Assay: Biosimilar mucus-permeating assay, in vitro cell-free model
Type: in vitro ADME
Details: peptide 1 mM, OPA method; for Mucus permeability (in words): cell-free biosimilar mucus model, PBS pH 7.2, 25 ℃, verbal grade; for Final cumulative mucus permeability at 240 min / Cumulative mucus permeability at 60 min: cell-free, biosimilar mucus (0.3% PAA, 5% mucin, 3.1% BSA, 0.6% lipid mixture, Tween 80) on 10 KDa centrifugal filter, 1 mL, PBS pH 7.2, 470× g, 25 ℃, mean ± SEM, at least three times in triplicate
Method: An in vitro cell-free model was established in this study for the quantification of mucus-permeating property of peptides. Biosimilar mucus used in the model consisted of 0.3% (w/v) PAA, 5% (w/v) mucin, 3.1% (w/v) BSA, 0.6% (w/v) lipid mixture including 0.06% (w/v) linoleic acid, 0.36% (w/v) cholesterol, 0.18% (w/v) phosphatidylcholine, and Tween 80 (25% of lipid mixture, w/w). First, the lipid was mixed with Tween 80, whereafter PBS buffer with 150 mM NaCl (5 mM, pH 7.2) was slowly added under magnetic stirring (Cimarec, ThermoFisher Scientific, Waltham, MA USA). On the other hand, PAA was dissolved in PBS buffer prior to the addition of mucin under stirring, and pH adjusted to 7.0 using NaOH (1 M). After mixing the lipids and mucin suspension, BSA was added to finalize the biosimilar mucus and the pH was adjusted to 7.4. The mucus mixture was stored overnight at 4 ℃ before dialyzing (Fisherbrand Regenerated Cellulose Dialysis Tubing, MWCOs from 3500 to 14,000 Daltons) for 72 h against PBS buffer (5 mM, pH 7.2) containing 150 mM NaCl to remove unbound lipids and contaminating proteins from BSA. Mucus-permeating assay was conducted by firstly adding 3.8 mL of dialyzed mucus suspensions to the filter of the centrifugal unit (4 mL, 10 KDa cutoff, Amicon Ultra, Millipore Sigma) followed by centrifugation at 2935× g for 15 min to make the mucus settle down and completely cover the entire membrane before adding peptide solutions (1 mM, 1 mL) or 1 mL of PBS buffer as blank. Afterwards, the permeate during centrifugation at 25 ℃ and 470× g was collected every 15 min for 4 h. The peptide content in the permeate was measured using the OPA method. The mucus permeability of the peptides was quantified using Equation (2). (2) P=np−nb/nT×100 PP is the percentage permeability, np represents the permeated peptides (µmol), nb is the blank (µmol), and nT is the total loaded peptide amount (µmol).

| Mucus permeability (in words) | Final cumulative mucus permeability at 240 min [%] | Cumulative mucus permeability at 60 min [%] | Molecule |
| --- | --- | --- | --- |
| low mucus permeability | 21 ± 5 | – | CSCC[C@H](N)C(=O)N[C@@H](C)C(=O)N[C@@H](CC(N)=O)C(=O)N[C@H](C(=O)O)[C@@H](C)O [Pep2, MANT] (H-MANT-OH) |
| high mucus permeability | 142 ± 35 | 96 ± 30 | C[C@@H](O)[C@H](N)C(=O)N[C@@H](CC(N)=O)C(=O)NCC(=O)N[C@@H](CCC(N)=O)C(=O)O [Pep4, TNGQ] (H-TNGQ-OH) |
| low mucus permeability | 13 ± 2 | – | CSCC[C@H](NC(=O)[C@@H](N)CCCCN)C(=O)N1CCC[C@H]1C(=O)N[C@H](C(=O)O)C(C)C [Pep5, KMPV] (H-KMPV-OH) |
| high mucus permeability | 92 ± 27 | 40 ± 17 | CC(C)C[C@H](NC(=O)[C@H](CO)NC(=O)[C@H](C)NC(=O)[C@@H]1CCCN1)C(=O)O [Pep6, PASL] (H-PASL-OH) |
| low mucus permeability | 23 ± 6 | – | KIPAVF [Pep1, KIPAVF] |
| low mucus permeability | 51 ± 9 | – | QIGLF [Pep7, QIGLF] |

| Molecule | Mucus permeability (in words) | Final cumulative mucus permeability at 240 min [%] | Cumulative mucus permeability at 60 min [%] |
| --- | --- | --- | --- |
| CSCC[C@H](NC(=O)[C@@H](N)Cc1ccc(O)cc1)C(=O)N[C@@H](CO)C(=O)N[C@H](C(=O)O)C(C)C [Pep3, YMSV] (H-YMSV-OH) | low mucus permeability | 44 ± 12 | – |
